Reference: ChEMBL document CHEMBL4706703, “Novel 3-benzylidene/benzylphthalide Mannich base derivatives as potential multifunctional agents for the treatment of Alzheimer's disease” (Bioorg Med Chem, 2021)

Key:
Plasma = test: Antiplatelet activity in rat platelet-rich plasma assessed as inhibition of ADP-induced platelet aggregation at 33 uM preincubated for 30 mins followed by ADP addition measured within 5 mins by aggregometry relative to control; format: functional; conditions: time 30-35 min
MAO-A = molecular target: T1, MAO-A (Homo sapiens, UniProt P21397); test: Inhibition of recombinant human MAOA at 10 uM using kynuramine as substrate preincubated for 30 mins followed by substrate addition and measured after 30 mins by fluorescence assay relative to control; conditions: probe kynuramine, time 60 min
T1 sequence (P21397 whole entry): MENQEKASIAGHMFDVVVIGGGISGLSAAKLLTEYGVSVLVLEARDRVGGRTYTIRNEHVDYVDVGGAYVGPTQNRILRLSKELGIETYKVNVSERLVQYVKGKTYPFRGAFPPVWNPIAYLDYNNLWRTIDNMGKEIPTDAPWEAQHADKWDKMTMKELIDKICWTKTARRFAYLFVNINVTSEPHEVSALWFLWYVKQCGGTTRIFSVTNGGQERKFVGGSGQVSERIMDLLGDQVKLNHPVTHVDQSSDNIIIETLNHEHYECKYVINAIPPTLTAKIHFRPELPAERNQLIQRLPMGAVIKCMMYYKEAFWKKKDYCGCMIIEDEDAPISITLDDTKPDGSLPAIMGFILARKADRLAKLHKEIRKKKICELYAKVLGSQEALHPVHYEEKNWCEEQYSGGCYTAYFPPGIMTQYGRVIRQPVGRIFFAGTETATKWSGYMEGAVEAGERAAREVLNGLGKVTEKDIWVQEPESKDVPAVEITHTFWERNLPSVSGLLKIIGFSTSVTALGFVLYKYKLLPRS

[1] = molecular target: T2, Amine oxidase [flavin-containing] B (Homo sapiens, UniProt P27338); test: Inhibition of recombinant human MAOB at 10 uM using kynuramine as substrate preincubated for 30 mins followed by substrate addition and measured after 30 mins by fluorescence assay relative to control; conditions: 0.5 h
T2 sequence (P27338 whole entry): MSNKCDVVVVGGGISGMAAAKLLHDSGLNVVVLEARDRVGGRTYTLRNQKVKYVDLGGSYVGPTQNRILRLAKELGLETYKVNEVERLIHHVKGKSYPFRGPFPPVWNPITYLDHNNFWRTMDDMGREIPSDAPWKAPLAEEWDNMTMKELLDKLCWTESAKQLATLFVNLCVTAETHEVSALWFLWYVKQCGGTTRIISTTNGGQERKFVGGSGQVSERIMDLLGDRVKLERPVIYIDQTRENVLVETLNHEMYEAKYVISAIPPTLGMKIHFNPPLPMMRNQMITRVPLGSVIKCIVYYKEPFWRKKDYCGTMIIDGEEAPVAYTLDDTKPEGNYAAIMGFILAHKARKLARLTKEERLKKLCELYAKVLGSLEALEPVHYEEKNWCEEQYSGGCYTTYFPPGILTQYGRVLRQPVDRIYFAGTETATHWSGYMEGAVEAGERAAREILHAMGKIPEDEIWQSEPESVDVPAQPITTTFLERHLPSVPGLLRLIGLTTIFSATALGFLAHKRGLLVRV

[2] = molecular target: butyrylcholinesterase (BuChE) (Rattus norvegicus, UniProt Q9JKC1); test: Inhibition of rat serum BuChE at 10 uM using butyrylthiocholine iodide as substrate incubated for 15 mins by Ellman's method relative to control; format: cell-free; conditions: probe butyrylthiocholine iodide
[3] = molecular target: Acetylcholinesterase (Electrophorus electricus) (UniProt O42275); test: Inhibition of Electrophorus electricus AChE at 10 uM using acetylthiocholine iodide as substrate incubated for 15 mins by Ellman's method relative to control
[4] = Antioxidant activity assessed as trolox equivalent of AAPH radical scavenging activity measured every min for 90 mins by ORAC-FL assay; format: functional
Acetylcholinesterase [5] = molecular target: Acetylcholinesterase (Homo sapiens, UniProt P22303); test: Inhibition of human AChE using acetylthiocholine iodide as substrate incubated for 15 mins by Ellman's method
Acetylcholinesterase [6] = molecular target: Acetylcholinesterase (Electrophorus electricus, UniProt O42275); test: Inhibition of Electrophorus electricus AChE using acetylthiocholine iodide as substrate incubated for 15 mins by Ellman's method
[7] = molecular target: Amyloid-beta precursor protein (Homo sapiens) (UniProt P05067); test: Inhibition of amyloid beta (1 to 42) (unknown origin) self aggregation at 25 uM after 24 hrs by thioflavin-T fluorescence method relative to control
[8] = Inhibition of Cu2+-induced amyloid beta (1 to 42 residues) aggregation at 25 uM after 24 hrs by thioflavin T-based fluorescence assay relative to control

Amyloid-beta precursor protein (Homo sapiens), sequence (P05067 whole entry, the tested form may be a part): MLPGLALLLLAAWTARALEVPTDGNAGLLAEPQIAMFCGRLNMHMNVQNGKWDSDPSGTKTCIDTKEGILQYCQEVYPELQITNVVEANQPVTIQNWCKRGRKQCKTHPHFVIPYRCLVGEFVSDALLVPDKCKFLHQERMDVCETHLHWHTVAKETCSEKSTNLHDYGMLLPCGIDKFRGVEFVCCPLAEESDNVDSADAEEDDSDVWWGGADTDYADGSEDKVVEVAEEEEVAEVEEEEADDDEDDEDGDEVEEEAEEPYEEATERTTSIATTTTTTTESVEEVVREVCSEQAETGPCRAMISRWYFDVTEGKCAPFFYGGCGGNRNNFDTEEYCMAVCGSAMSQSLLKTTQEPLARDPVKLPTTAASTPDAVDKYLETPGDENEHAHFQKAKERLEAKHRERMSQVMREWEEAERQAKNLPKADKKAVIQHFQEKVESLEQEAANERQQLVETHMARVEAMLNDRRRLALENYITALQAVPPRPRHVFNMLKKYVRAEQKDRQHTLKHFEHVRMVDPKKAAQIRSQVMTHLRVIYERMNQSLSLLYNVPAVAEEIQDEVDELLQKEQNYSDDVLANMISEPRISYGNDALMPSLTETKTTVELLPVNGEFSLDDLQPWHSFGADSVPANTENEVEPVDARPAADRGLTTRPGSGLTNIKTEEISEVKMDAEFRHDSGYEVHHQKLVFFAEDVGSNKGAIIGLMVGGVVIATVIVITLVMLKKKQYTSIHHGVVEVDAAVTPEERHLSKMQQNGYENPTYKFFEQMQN
butyrylcholinesterase (BuChE), sequence (Q9JKC1 whole entry): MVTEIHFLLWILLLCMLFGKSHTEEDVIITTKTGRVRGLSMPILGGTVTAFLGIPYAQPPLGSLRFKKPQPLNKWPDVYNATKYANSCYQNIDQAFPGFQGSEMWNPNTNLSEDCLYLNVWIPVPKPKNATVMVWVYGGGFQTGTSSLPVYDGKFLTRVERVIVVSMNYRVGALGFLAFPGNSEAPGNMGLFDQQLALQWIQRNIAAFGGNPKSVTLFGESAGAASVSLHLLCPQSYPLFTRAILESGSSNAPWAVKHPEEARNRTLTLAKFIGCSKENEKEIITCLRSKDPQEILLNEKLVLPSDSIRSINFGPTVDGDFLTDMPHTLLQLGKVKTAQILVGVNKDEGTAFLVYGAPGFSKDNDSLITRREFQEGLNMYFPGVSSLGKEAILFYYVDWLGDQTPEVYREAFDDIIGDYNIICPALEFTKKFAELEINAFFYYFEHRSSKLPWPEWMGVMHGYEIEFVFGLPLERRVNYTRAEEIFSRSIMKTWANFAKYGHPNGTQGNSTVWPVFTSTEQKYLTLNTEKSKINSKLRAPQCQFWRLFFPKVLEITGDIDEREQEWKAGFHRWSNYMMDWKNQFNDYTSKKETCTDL
Acetylcholinesterase (Electrophorus electricus, UniProt O42275), sequence (O42275 whole entry): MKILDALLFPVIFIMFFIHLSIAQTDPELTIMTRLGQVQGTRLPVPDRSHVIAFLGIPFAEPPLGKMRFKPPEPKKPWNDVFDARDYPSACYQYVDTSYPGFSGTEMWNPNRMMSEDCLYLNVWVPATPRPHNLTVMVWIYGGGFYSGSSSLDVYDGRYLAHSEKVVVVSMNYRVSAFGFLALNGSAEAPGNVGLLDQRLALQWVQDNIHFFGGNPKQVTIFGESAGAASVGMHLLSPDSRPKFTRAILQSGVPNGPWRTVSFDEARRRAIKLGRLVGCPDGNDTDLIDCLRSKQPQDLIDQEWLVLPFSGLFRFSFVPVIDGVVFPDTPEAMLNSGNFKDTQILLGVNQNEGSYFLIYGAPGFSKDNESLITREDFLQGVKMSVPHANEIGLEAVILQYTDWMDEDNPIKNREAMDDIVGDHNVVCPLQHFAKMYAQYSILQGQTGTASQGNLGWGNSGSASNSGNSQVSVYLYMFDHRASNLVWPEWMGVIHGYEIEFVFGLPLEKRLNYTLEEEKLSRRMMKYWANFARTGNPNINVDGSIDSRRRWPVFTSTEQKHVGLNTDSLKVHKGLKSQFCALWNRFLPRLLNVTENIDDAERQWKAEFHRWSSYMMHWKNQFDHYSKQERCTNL
Acetylcholinesterase (Electrophorus electricus), sequence (O42275 24-633 limits assumed): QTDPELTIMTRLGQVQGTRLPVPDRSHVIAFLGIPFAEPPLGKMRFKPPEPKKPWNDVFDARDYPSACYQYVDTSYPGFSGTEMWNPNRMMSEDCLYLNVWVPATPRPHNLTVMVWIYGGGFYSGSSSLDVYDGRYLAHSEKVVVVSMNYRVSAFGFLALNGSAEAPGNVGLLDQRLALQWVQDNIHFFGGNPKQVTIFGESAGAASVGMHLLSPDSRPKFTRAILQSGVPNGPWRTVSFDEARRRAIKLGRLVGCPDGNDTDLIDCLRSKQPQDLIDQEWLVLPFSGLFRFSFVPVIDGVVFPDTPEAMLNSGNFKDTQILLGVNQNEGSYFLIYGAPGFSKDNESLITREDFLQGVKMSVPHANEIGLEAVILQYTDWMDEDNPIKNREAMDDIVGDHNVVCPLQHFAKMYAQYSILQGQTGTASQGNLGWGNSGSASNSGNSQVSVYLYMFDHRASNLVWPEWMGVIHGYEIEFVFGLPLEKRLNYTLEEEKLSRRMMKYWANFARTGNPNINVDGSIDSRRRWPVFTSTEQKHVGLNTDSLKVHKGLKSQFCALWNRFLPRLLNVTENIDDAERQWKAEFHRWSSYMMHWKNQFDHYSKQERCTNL
Acetylcholinesterase (Homo sapiens, UniProt P22303), sequence (P22303 whole entry): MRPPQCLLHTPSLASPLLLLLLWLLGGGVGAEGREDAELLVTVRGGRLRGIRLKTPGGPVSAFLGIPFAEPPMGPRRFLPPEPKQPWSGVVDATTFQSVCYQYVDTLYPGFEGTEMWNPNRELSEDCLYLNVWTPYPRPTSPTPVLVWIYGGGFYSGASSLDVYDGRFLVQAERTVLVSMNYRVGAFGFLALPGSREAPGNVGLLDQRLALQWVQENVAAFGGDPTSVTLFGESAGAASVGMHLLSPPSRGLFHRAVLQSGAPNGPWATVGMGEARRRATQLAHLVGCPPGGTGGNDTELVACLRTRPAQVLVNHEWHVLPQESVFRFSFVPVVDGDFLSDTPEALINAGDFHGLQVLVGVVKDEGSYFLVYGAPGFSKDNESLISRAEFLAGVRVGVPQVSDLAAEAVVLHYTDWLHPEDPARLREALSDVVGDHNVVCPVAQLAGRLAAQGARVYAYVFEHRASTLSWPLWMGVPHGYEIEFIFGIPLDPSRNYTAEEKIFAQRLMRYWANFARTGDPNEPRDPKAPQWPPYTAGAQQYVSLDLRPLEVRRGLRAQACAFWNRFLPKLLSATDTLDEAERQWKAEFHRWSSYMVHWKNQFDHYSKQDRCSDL

Row | Compound | inhibition at 33 µM (Plasma) [%] | inhibition at 0.5 h, 10 µM (MAO-A) [%] | inhibition at 10 µM [1] [%] | inhibition at […], 10 µM [2] [%] | inhibition [3] [%] | Activity [4] [equiv] | IC50 (Acetylcholinesterase [5]) [nM] | IC50 (Acetylcholinesterase [6]) [nM] | inhibition [7] [%] | inhibition [8] [%]
1 | CC(=O)Oc1ccccc1C(=O)O [ASPIRIN] | 12.4 |  |  |  |  |  |  |  |  | 
2 | COc1cc2c(cc1OC)/C(=C/c1cccc(O)c1N1CCN(C)CC1)OC2=O |  | < 5 | 29.5 | < 5 | 22.3 | 2.09 |  |  |  | 
3 | COc1cc2c(cc1OC)/C(=C\c1ccc(N3CCCCC3)c(O)c1)OC2=O | < 5 | 49.1 | 16.1 | 26.2 |  | 1.94 | 12 | 8.83 | 22.5 | 
4 | COc1cc2c(cc1OC)/C(=C/c1cccc(O)c1N1CCOCC1)OC2=O |  | 6.6 | 27.9 | < 5 | 15.1 | 1.48 |  |  |  | 
5 | COc1cc2c(cc1OC)C(Cc1cccc(O)c1N1CCOCC1)OC2=O (stereo not drawn) |  | < 5 | 19.1 | < 5 | 11 | 2.28 |  |  |  | 
6 | COc1cc2c(cc1OC)/C(=C\c1ccc(N3CCOCC3)c(O)c1)OC2=O |  | 18.7 | 13 | 5.7 |  | 1.76 |  | 2430 | 24.9 | 
7 | COc1cc2c(cc1OC)/C(=C/c1cccc(O)c1N1CCCC1)OC2=O |  | < 5 | 10.3 | 8.8 |  | 2.18 |  | 8860 |  | 
8 | COc1cc2c(cc1OC)C(Cc1cccc(O)c1N1CCN(C)CC1)OC2=O (stereo not drawn) |  | < 5 | < 5 | < 5 | 14 | 2.13 |  |  |  | 
9 | COc1cc2c(cc1OC)/C(=C\c1cccc(O)c1N1CCN(C)CC1)OC2=O |  | 10 | 13.2 | 5.9 |  | 1.38 |  | 12400 |  | 
10 | CCN(CC)c1ccc(/C=C2/OC(=O)c3cc(OC)c(OC)cc32)cc1O | < 5 | 48 | 49 | 5.7 |  | 4.48 |  | 26 | 26.1 | 
11 | COc1cc2c(cc1OC)C(Cc1cccc(O)c1N1CCCCC1)OC2=O (stereo not drawn) |  | < 5 | 15.6 | < 5 | 12.6 | 1.44 |  |  |  | 
12 | COc1cc2c(cc1OC)/C(=C/c1ccc(N3CCCCC3)c(O)c1)OC2=O | 15.4 | 6.1 | < 5 | < 5 |  | 1.46 | 50 | 66 | 24.6 | 
13 | COc1cc2c(cc1OC)C(Cc1cccc(O)c1N1CCCC1)OC2=O (stereo not drawn) |  | 10.5 | 11.3 | 7.1 | 19.4 | 1.86 |  |  |  | 
14 | CCN(CC)c1c(O)cccc1CC1OC(=O)c2cc(OC)c(OC)cc21 (stereo not drawn) |  | < 5 | < 5 | 12.5 | 16.3 | 2.78 |  |  |  | 
15 | COc1cc2c(cc1OC)/C(=C/c1cccc(O)c1N1CCCCC1)OC2=O |  | < 5 | 20.3 | 6.7 | 41.1 | 2.08 |  |  |  | 
16 | COc1cc2c(cc1OC)/C(=C/c1ccc(N3CCCC3)c(O)c1)OC2=O | < 5 | 5.1 | 28.3 | 9.4 |  | 4.1 |  | 31 | 23 | 

Row | Compound | inhibition at 33 µM (Plasma) [%] | inhibition at 0.5 h, 10 µM (MAO-A) [%] | inhibition at 10 µM [1] [%] | inhibition at […], 10 µM [2] [%] | inhibition [3] [%] | Activity [4] [equiv] | IC50 (Acetylcholinesterase [5]) [nM] | IC50 (Acetylcholinesterase [6]) [nM] | inhibition [7] [%] | inhibition [8] [%]
17 | COc1cc2c(cc1OC)/C(=C\c1ccc(N3CCCC3)c(O)c1)OC2=O | 9.8 | 32 | 27.8 | 16.5 |  | 2.82 |  | 660 | 30.6 | 
18 | CCN(CC)c1c(O)cccc1/C=C1/OC(=O)c2cc(OC)c(OC)cc21 |  | < 5 | 44.6 | 31.4 | 46.9 | 2.53 |  |  |  | 
19 | COc1cc2c(cc1OC)/C(=C\c1cccc(O)c1N1CCOCC1)OC2=O |  | < 5 | 10.1 | 11.3 | 40.8 | 2.06 |  |  |  | 
20 | COc1cc2c(cc1OC)/C(=C/c1ccc(N3CCOCC3)c(O)c1)OC2=O |  | 5.3 | 50.2 | < 5 |  | 1.77 |  | 9680 | 26.7 | 
21 | COc1cc2c(cc1OC)/C(=C\c1ccc(N3CCN(C)CC3)c(O)c1)OC2=O |  | 5 | 31.4 | 5.5 |  | 2.36 |  | 2630 |  | 
22 | COc1cc2c(cc1OC)/C(=C\c1cccc(O)c1N1CCCC1)OC2=O |  | < 5 | 12.5 | 49.6 |  | 2.46 |  | 19500 |  | 
23 | CCN(CC)c1c(O)cccc1/C=C1\OC(=O)c2cc(OC)c(OC)cc21 |  | < 5 | 44.9 | < 5 | 38 | 2.87 |  |  |  | 
24 | COc1cc2c(cc1OC)C(Cc1ccc(N3CCN(C)CC3)c(O)c1)OC2=O (stereo not drawn) |  | 5.6 | 17 | < 5 | 42.4 | 2.09 |  |  |  | 
25 | COc1cc2c(cc1OC)C(Cc1ccc(N3CCCC3)c(O)c1)OC2=O (stereo not drawn) | < 5 | < 5 | 14.6 | 19.8 |  | 2.54 |  | 960 | 31.1 | 18.5
26 | CCN(CC)c1ccc(/C=C2\OC(=O)c3cc(OC)c(OC)cc32)cc1O | 12.4 | < 5 | 39.4 | < 5 |  | 2.7 |  | 72 | 28.6 | 
27 | COc1cc2c(cc1OC)C(Cc1cccc(O)c1)OC2=O (stereo not drawn) |  | 7.9 | 6.2 | < 5 | 14.4 | 0.95 |  |  |  | 
28 | CCN(CC)c1ccc(CC2OC(=O)c3cc(OC)c(OC)cc32)cc1O (stereo not drawn) | < 5 | < 5 | < 5 | < 5 |  | 2.14 |  | 2210 | 30.1 | 14.3
29 | COc1cc2c(cc1OC)/C(=C\c1cccc(O)c1N1CCCCC1)OC2=O |  | < 5 | 24.2 | 16.4 | 42.8 | 2.58 |  |  |  | 
30 | COc1cc2c(cc1OC)C(Cc1ccc(N3CCOCC3)c(O)c1)OC2=O (stereo not drawn) |  | 8.7 | 34.7 | < 5 |  | 2.42 |  | 8260 | 29.5 | 9.5
31 | COc1cc2c(cc1OC)C(Cc1ccc(N3CCCCC3)c(O)c1)OC2=O (stereo not drawn) | < 5 | 14.8 | 8.6 | 10.3 |  | 2.42 |  | 33 | 28.9 | 12.8
